Assays:
Protein ENL [1] = target: T1, Protein ENL (Homo sapiens, UniProt Q03111); assay: Binding affinity to ENL YEATS domain (unknown origin) assessed as dissociation constant by ITC assay
T1 sequence (Q03111 whole entry): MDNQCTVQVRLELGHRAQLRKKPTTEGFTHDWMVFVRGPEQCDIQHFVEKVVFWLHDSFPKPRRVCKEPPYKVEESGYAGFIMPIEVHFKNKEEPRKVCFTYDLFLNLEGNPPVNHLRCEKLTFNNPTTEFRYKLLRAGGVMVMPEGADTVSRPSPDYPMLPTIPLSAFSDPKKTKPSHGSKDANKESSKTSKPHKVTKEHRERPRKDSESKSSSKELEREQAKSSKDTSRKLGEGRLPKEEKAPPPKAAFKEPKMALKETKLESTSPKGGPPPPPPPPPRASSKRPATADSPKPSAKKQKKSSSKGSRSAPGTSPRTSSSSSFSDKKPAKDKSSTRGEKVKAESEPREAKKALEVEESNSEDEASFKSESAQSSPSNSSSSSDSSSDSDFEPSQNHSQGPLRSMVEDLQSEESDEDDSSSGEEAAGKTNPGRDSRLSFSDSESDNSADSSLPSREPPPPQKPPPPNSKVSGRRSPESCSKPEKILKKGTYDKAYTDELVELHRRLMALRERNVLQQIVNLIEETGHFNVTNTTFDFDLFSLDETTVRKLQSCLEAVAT

Protein ENL [2] = target: T1, Protein ENL; assay: Inhibition of C-terminal 6xHis-tagged ENL YEATS domain (1 to 148 residues) (unknown origin) expressed in Escherichia coli BL21(DE3) cells using biotin-H3K27ace as substrate incubated for 45 mins by alpha screen assay
[3] = target: T2, Protein ENL (Homo sapiens) (UniProt Q03111); conditions: dose 333.0 nM, time 45.0 min
T2 sequence (whole entry): T1 sequence (Q03111 whole entry)

[4] = target: T2, Protein ENL (Homo sapiens); conditions: dose 111.0 nM, time 45.0 min
[5] = Tmax in BALB/c mouse at 30 mg/kg, po measured after 0.5 to 24 hrs by LC-MS/MS assay; format: ADME, organism-based; conditions: in vivo, time 0.5-24 hrs
[6] = Cmax in BALB/c mouse at 30 mg/kg, po measured after 0.5 to 24 hrs by LC-MS/MS assay; format: ADME, organism-based; parameters: dose 30 mg/kg, time 0.5-24 hrs, route po; conditions: in vivo
[7] = Half life in BALB/c mouse at 30 mg/kg, po measured after 0.5 to 24 hrs by LC-MS/MS assay; format: ADME, organism-based; conditions: in vivo, time 0.5-24 hrs
[8] = AUC (0 to t) in BALB/c mouse at 30 mg/kg, po measured after 0.5 to 24 hrs by LC-MS/MS assay; format: ADME, organism-based; parameters: dose 30 mg/kg, time 0.5-24 hrs, route po; conditions: in vivo
[9] = AUC (0 to infinity) in BALB/c mouse at 30 mg/kg, po measured after 0.5 to 24 hrs by LC-MS/MS assay; format: ADME, organism-based; parameters: time lower 0.5 hrs, dose 30 mg/kg, time upper 24 hrs, route po; conditions: in vivo
[10] = MRT (0 to infinity) in BALB/c mouse at 30 mg/kg, po measured after 0.5 to 24 hrs by LC-MS/MS assay; format: ADME, organism-based; conditions: in vivo, time 0.5-24 hrs
MOLM-13 [11] = assay: Antiproliferative activity against human MOLM-13 cells assessed as inhibition of cell growth measured after 72 hrs by Cell Titer-Glo luminescent assay; format: functional, cell-based; conditions: MOLM-13, 72 h
[12] = target: T2, Protein ENL (Homo sapiens); conditions: dose 50.0 µM
[13] = target: T2, Protein ENL (Homo sapiens); conditions: dose 25.0 µM
[14] = target: T2, Protein ENL (Homo sapiens); conditions: dose 12.5 µM
Description: Binding affinity to C-terminal 6xHis-tagged ENL YEATS domain (1 to 148 residues) (unknown origin) expressed in Escherichia coli BL21(DE3) cells assessed as thermal stability by measuring change in melting temperature at 12.5 uM by SYPRO dye-based thermal shift assay

[15] = target: T2, Protein ENL (Homo sapiens); conditions: dose 6.3 µM
Description: Binding affinity to C-terminal 6xHis-tagged ENL YEATS domain (1 to 148 residues) (unknown origin) expressed in Escherichia coli BL21(DE3) cells assessed as thermal stability by measuring change in melting temperature at 6.3 uM by SYPRO dye-based thermal shift assay

MV4-11 = assay: cells; conditions: Homo sapiens, MV4-11, 72 h
Description: Antiproliferative activity against human MV4-11 cells assessed as inhibition of cell growth measured after 72 hrs by Cell Titer-Glo luminescent assay

MOLM-13 [16] = assay: Potency index, ratio of SGC-iMLLT IC50 to test compound IC50 for antiproliferative activity against human MOLM-13 cells; format: functional
Protein ENL [17] = target: T1, Protein ENL; assay: Inhibition of C-terminal ENL YEATS domain (unknown origin) (M1 to A148 residues) using biotinylated peptide as substrate by alpha screen assay
Protein ENL [18] = target: T1, Protein ENL; assay: Binding affinity to C-terminal ENL YEATS domain (unknown origin) (M1 to A148 residues) assessed as dissociation constant by ITC assay
Protein ENL [19] = target: T1, Protein ENL; assay: Inhibition of recombinantC-terminal 6xHis-tagged ENL YEATS domain (1 to 148 residues) (unknown origin) expressed in Escherichia coli BL21(DE3) cells using H3(13-32)K27cr as substrate by FRET assay
Protein ENL [20] = target: T1, Protein ENL; assay: Binding affinity toC-terminal 6xHis-tagged ENL YEATS domain (1 to 148 residues) (unknown origin) assessed as dissociation constant by BLI assay

IC50 (Protein ENL [2]) [nM]	inhibition [3] [%]	inhibition [4] [%]	SMILES	also measured
48.8	99.3	87.3	Cc1noc2ccc(C(=O)Nc3ccc4[nH]c(CN5CCC[C@@H]5C)nc4c3)cc12	
	99.7	99.8	C[C@H]1CCCN1Cc1nc2cc(NC(=O)c3ccc4c(cnn4C)c3)ccc2[nH]1	Tmax [5]: 30 min; Cmax [6]: 33.6 ng/mL; half-life [7]: 30 min; AUC(0-t) [8]: 59.8 ng·h/mL; AUC(0-inf) [9]: 61 ng·h/mL; MRT inf [10]: 60 min; IC50 (MOLM-13 [11]): 74700 nM; ΔTm [12]: 4.3 °C; ΔTm [13]: 3.1 °C; ΔTm [14]: 2.2 °C; ΔTm [15]: 1.4 °C; IC50 (MV4-11): 35000 nM
10.7	99.9	99.1	Cc1noc2cc(C(=O)Nc3ccc4[nH]c(CN5CCC[C@@H]5C)nc4c3)ccc12	IC50 (MOLM-13 [11]): 37900 nM; Ratio IC50 (MOLM-13 [16]): 2; ΔTm [12]: 4.9 °C; ΔTm [13]: 3.9 °C; ΔTm [14]: 2.8 °C; ΔTm [15]: 1.8 °C; IC50 (MV4-11): 51400 nM
18.9	100	98.3	CCn1ncc2cc(C(=O)Nc3ccc4[nH]c(CN5CCC[C@@H]5C)nc4c3)ccc21	
35.3	100	98.4	CCCCn1cc2cc(C(=O)Nc3ccc4[nH]c(CN5CCC[C@@H]5C)nc4c3)ccc2n1	
17.2	98.4	84.1	C[C@H]1CCCN1Cc1nc2cc(NC(=O)c3ccc4nn(CCN)cc4c3)ccc2[nH]1	
77	99.6	86.8	C[C@H]1CCCN1Cc1nc2cc(NC(=O)c3ccc4nn(C)cc4c3)ccc2[nH]1	
267	84.5	57	Cc1nnc2ccc(C(=O)Nc3ccc4[nH]c(CN5CCC[C@@H]5C)nc4c3)cn12	
36.7	99.7	82.4	CCn1cc2cc(C(=O)Nc3ccc4[nH]c(CN5CCC[C@@H]5C)nc4c3)ccc2n1	

Further lines, the compound ahead of its results:

SMILES	IC50 (Protein ENL [2]) [nM]	inhibition [3] [%]	inhibition [4] [%]	also measured
C[C@@H]1NC(=O)[C@H]([C@H](C)O)NC(=O)[C@@H](NC(=O)OCc2ccccc2)CCCCNC(=N)NCCC[C@H](C(=O)N[C@@H](CCCCNC(=O)c2cnco2)C(N)=O)NC1=O				Kd (Protein ENL [1]): 14100 nM
C[C@H]1CCCN1Cc1nc2cc(NC(=O)c3ccc4c(cnn4CCN4CC5OC(C)(C)OC5C4C4COC(C)(C)O4)c3)ccc2[nH]1 (stereo partly drawn)	56.4	99.6	89	
C[C@H]1CCCN1Cc1nc2cc(NC(=O)c3ccc4nn(C5CCCC5)cc4c3)ccc2[nH]1	70.2	96.1	51	
C[C@H]1CCCN1Cc1nc2cc(NC(=O)c3ccc4c(c3)c3cc(F)ccc3c(=O)n4C)ccc2[nH]1	22.1	99.2	90.8	
C[C@H]1CCCN1Cc1nc2cc(NC(=O)c3ccc4c5ccccc5n(C)c4c3)ccc2[nH]1	72.2	96.5	85.4	
C[C@H]1CCCN1Cc1nc2cc(NC(=O)N3C(CO)C(O)C(O)C3CO)ccc2[nH]1 (stereo partly drawn)	22	98.5	79.5	IC50 (MOLM-13 [11]): > 100000 nM; IC50 (MV4-11): > 100000 nM
C[C@H]1CCCN1Cc1nc2cc(NC(=O)c3ccc4c(cnn4CCNC(=O)c4ccccc4)c3)ccc2[nH]1	19.2	99	86.2	
C[C@H]1CCCN1Cc1nc2cc(NC(=O)c3ccc4c5ccccc5c(=O)n(C)c4c3)ccc2[nH]1	31.8	100	99.2	
C[C@H]1CCCN1Cc1nc2cc(NC(=O)c3ccc4c(cnn4CCN)c3)ccc2[nH]1	28.2	100	100	
Cc1ccccc1C(=O)NCCn1ncc2cc(C(=O)Nc3ccc4[nH]c(CN5CCC[C@@H]5C)nc4c3)ccc21	35.4	96.1	68.4	
COC(=O)c1ccc(C(=O)Nc2ccc3[nH]c(CN4CCCCC4)nc3c2)cc1				IC50 (Protein ENL [17]): 1600 nM; Kd (Protein ENL [18]): 754 nM
Cc1cccc2c(=O)n(C)c3ccc(C(=O)Nc4ccc5[nH]c(CN6CCC[C@@H]6C)nc5c4)cc3c12	46.4	95.6	63.2	
C[C@H]1CCCN1Cc1nc2cc(NC(=O)c3ccc4nn(CCNC(=O)OC(C)(C)C)cc4c3)ccc2[nH]1	37.9	99.1	56	
O=C(/C=C/c1ccc(-n2ccnc2)cc1)N1CCN(C(=O)c2ccco2)CC1				IC50 (Protein ENL [19]): 19000 nM; Kd (Protein ENL [20]): 14000 nM
CCCCn1ncc2cc(C(=O)Nc3ccc4[nH]c(CN5CCC[C@@H]5C)nc4c3)ccc21	17	100	98	
C[C@H]1CCCN1Cc1nc2cc(NC(=O)c3ccc4c(cnn4CCN4CCOCC4)c3)ccc2[nH]1	14.5	99.9	98.3	IC50 (MOLM-13 [11]): 39600 nM; Ratio IC50 (MOLM-13 [16]): 2; ΔTm [12]: 3.5 °C; ΔTm [13]: 2 °C; ΔTm [14]: 1.3 °C; ΔTm [15]: 0.8 °C
C[C@H]1CCCN1Cc1nc2cc(NC(=O)c3ccc4c(cnn4CCNC(=O)Nc4cccc(F)c4)c3)ccc2[nH]1	46	97.8	67.6	
C[C@H]1CCCN1Cc1nc2cc(NC(=O)c3ccc4c(cnn4CCN4CC(O)C(O)C4C(O)CO)c3)ccc2[nH]1 (stereo partly drawn)	32.3	99.3	84.6	
